Laboratory results taken from patent US20140371074A1, “METHOD TO INCREASE PLANT YIELD” (priority 2012, published 2014).

Key:
[1] = system: Soybean variety Latham EX32124 CystX; assay: Greenhouse: 2,4-D LV4 drizzled onto soil of potted plants, pod and node counts; type: in vivo; conditions: for Average pods per normal node / Megacluster nodes / Normal nodes / Total nodes with pods / Pods on megacluster nodes / Pods on normal nodes / Average pods per megacluster node: 2 plants/pot; for Pods on megacluster nodes / Pods on normal nodes / Total pods per pot (2 plants): immature pods
Description: Soybean variety ‘Latham EX32124 CystX’ was planted in 8.5 inch diameter pots and grown under lights in a greenhouse. Four seeds each were planted and later thinned to 2 plants per plot for each of 5 treatment rates of 0.47, 0.94, 1.88, 3.76, and 7.52 pounds a.e. of 2,4-D per acre. […] When the soybean plants were at the stage of growth in which pods are 3/16 inch length at one of the two uppermost nodes, the number of beginning pods was observed.
At this stage, household fertilizer was added to the plants along with water, and the number of nodes and pods was observed approximately ten days later, as shown in Table 3. Pod counts were for 2 plants per pot.

[2] = system: soybean variety L2438R2; assay: Field: seed treatment with 2,4-D mixture 0.01-0.09 ounces per 100 pounds of seed, Laurel, Iowa (Table 7); type: in vivo
Description: Previously untreated soybean seeds were treated with between 0.01 ounces to 0.09 ounces of 2,4-D solution per 100 pounds of seed, in which 0.01 ounces is equivalent to 0.0002968 pounds acid equivalent of 2,4-D. The seed variety was L2438R2 and seeds were planted in Laurel, Iowa with a row width of 50 inches. Four rows were planted and the middle two rows were harvested.

[3] = 0.01 ounces per 100 pounds of seed
[4] = 0.02 ounces per 100 pounds of seed
[5] = 0.03 ounces per 100 pounds of seed
[6] = 0.04 ounces per 100 pounds of seed
[7] = 0.05 ounces per 100 pounds of seed
[8] = 0.06 ounces per 100 pounds of seed
[9] = 0.07 ounces per 100 pounds of seed
[10] = 0.08 ounces per 100 pounds of seed
[11] = 0.09 ounces per 100 pounds of seed

O=C(O)COc1ccc(Cl)cc1Cl [2,4-D, 2,4-Dichlorophenoxyacetic acid]
Beginning pods ([1]; 0.47 lbs a.e. per acre): Normal
Average pods per normal node ([1]; 0.47 lbs a.e.): 3.9
Megacluster nodes ([1]; 0.47 lbs a.e.): 0
Normal nodes ([1]; 0.47 lbs a.e.): 7
Total nodes with pods ([1]; 0.47 lbs a.e.): 7
Pods on megacluster nodes ([1]; 0.47 lbs a.e.): 0
Pods on normal nodes ([1]; 0.47 lbs a.e.): 27
Total pods per pot (2 plants) ([1]; 0.47 lbs a.e.): 27
Beginning pods ([1]; 0.94 lbs a.e. per acre): huge clusters of pods (megaclusters)
Average pods per megacluster node ([1]; 0.94 lbs a.e.): 12.5
Average pods per normal node ([1]; 0.94 lbs a.e.): 3.6
Megacluster nodes ([1]; 0.94 lbs a.e.): 6
Normal nodes ([1]; 0.94 lbs a.e.): 5
Total nodes with pods ([1]; 0.94 lbs a.e.): 11
Pods on megacluster nodes ([1]; 0.94 lbs a.e.): 75
Pods on normal nodes ([1]; 0.94 lbs a.e.): 18
Total pods per pot (2 plants) ([1]; 0.94 lbs a.e.): 93
number of pods versus untreated plants ([1]; 0.94 pounds a.e. of 2,4-D): over double the number of pods
total number of pods per plant compared to the control ([1]; 1.88, 3.76, and 7.52 pounds a.e. of 2,4-D per acre): increased total number of pods per plant
Beginning pods ([1]; 1.88 lbs a.e. per acre): huge clusters of pods (megaclusters)
Average pods per megacluster node ([1]; 1.88 lbs a.e.): 6.0
Average pods per normal node ([1]; 1.88 lbs a.e.): 3.4
Megacluster nodes ([1]; 1.88 lbs a.e.): 5
Normal nodes ([1]; 1.88 lbs a.e.): 5
Total nodes with pods ([1]; 1.88 lbs a.e.): 10
Pods on megacluster nodes ([1]; 1.88 lbs a.e.): 30
Pods on normal nodes ([1]; 1.88 lbs a.e.): 17
Total pods per pot (2 plants) ([1]; 1.88 lbs a.e.): 49
Beginning pods ([1]; 3.76 lbs a.e. per acre): Normal
Average pods per megacluster node ([1]; 3.76 lbs a.e.): 9.0
Average pods per normal node ([1]; 3.76 lbs a.e.): 4.8
Megacluster nodes ([1]; 3.76 lbs a.e.): 3
Normal nodes ([1]; 3.76 lbs a.e.): 5
Total nodes with pods ([1]; 3.76 lbs a.e.): 8
Pods on megacluster nodes ([1]; 3.76 lbs a.e.): 27
Pods on normal nodes ([1]; 3.76 lbs a.e.): 24
Total pods per pot (2 plants) ([1]; 3.76 lbs a.e.): 51
Beginning pods ([1]; 7.52 lbs a.e. per acre): Normal
Average pods per megacluster node ([1]; 7.52 lbs a.e.): 9.0
Average pods per normal node ([1]; 7.52 lbs a.e.): 3.6
Megacluster nodes ([1]; 7.52 lbs a.e.): 2
Normal nodes ([1]; 7.52 lbs a.e.): 7
Total nodes with pods ([1]; 7.52 lbs a.e.): 9
Pods on megacluster nodes ([1]; 7.52 lbs a.e.): 18
Pods on normal nodes ([1]; 7.52 lbs a.e.): 25
Total pods per pot (2 plants) ([1]; 7.52 lbs a.e.): 43
leaf damage ([1]; 7.52 pounds a.e. rate): some yellowing of leaves
pod set ([1]; between 0.47 and 7.52 pounds a.e. of 2,4-D per acre): excessive numbers of pods at every node
mature slower and stay greener, longer than untreated plants ([1]; treated plants, 0.47-7.52 pounds a.e. per acre): approximately 2 weeks
Repetition 1 Total weight [2, 3]: 14.80 pounds
Repetition 1 Yield [2, 3]: 46.49 Bu/acre
Repetition 2 Total weight [2, 3]: 15.60 pounds
Repetition 2 Yield [2, 3]: 48.92 Bu/acre
Total yield (total average yield) [2, 3]: 47.70 Bu/acre
Repetition 1 Total weight [2, 4]: 15.90 pounds
Repetition 1 Yield [2, 4]: 50.21 Bu/acre
Repetition 2 Total weight [2, 4]: 16.10 pounds
Repetition 2 Yield [2, 4]: 50.65 Bu/acre
Total yield (total average yield) [2, 4]: 50.43 Bu/acre
Repetition 1 Total weight [2, 5]: 15.60 pounds
Repetition 1 Yield [2, 5]: 49.26 Bu/acre
Repetition 2 Total weight [2, 5]: 14.90 pounds
Repetition 2 Yield [2, 5]: 47.12 Bu/acre
Total yield (total average yield) [2, 5]: 48.19 Bu/acre
Repetition 1 Total weight [2, 6]: 16.40 pounds
Repetition 1 Yield [2, 6]: 49.46 Bu/acre
Repetition 2 Total weight [2, 6]: 15.90 pounds
Repetition 2 Yield [2, 6]: 47.45 Bu/acre
Total yield (total average yield) [2, 6]: 48.45 Bu/acre
Repetition 1 Total weight [2, 7]: 16.10 pounds
Repetition 1 Yield [2, 7]: 47.48 Bu/acre
Repetition 2 Total weight [2, 7]: 16.00 pounds
Repetition 2 Yield [2, 7]: 49.21 Bu/acre
Total yield (total average yield) [2, 7]: 48.35 Bu/acre
Repetition 1 Total weight [2, 8]: 15.50 pounds
Repetition 1 Yield [2, 8]: 46.85 Bu/acre
Repetition 2 Total weight [2, 8]: 14.90 pounds
Repetition 2 Yield [2, 8]: 45.78 Bu/acre
Total yield (total average yield) [2, 8]: 46.31 Bu/acre
Repetition 1 Total weight [2, 9]: 14.50 pounds
Repetition 1 Yield [2, 9]: 44.99 Bu/acre
Repetition 2 Total weight [2, 9]: 14.90 pounds
Repetition 2 Yield [2, 9]: 46.13 Bu/acre
Total yield (total average yield) [2, 9]: 45.56 Bu/acre
Repetition 1 Total weight [2, 10]: 13.40 pounds
Repetition 1 Yield [2, 10]: 41.93 Bu/acre
Repetition 2 Total weight [2, 10]: 14.30 pounds
Repetition 2 Yield [2, 10]: 44.99 Bu/acre
Total yield (total average yield) [2, 10]: 43.46 Bu/acre
Repetition 1 Total weight [2, 11]: 14.90 pounds
Repetition 1 Yield [2, 11]: 46.40 Bu/acre
Repetition 2 Total weight [2, 11]: 14.00 pounds
Repetition 2 Yield [2, 11]: 43.83 Bu/acre
Total yield (total average yield) [2, 11]: 45.12 Bu/acre
Repetition 1 Total weight ([2]; Average over 0.01-0.09 ounces): 15.23 pounds
Repetition 1 Yield ([2]; Average over 0.01-0.09 ounces): 47.01 Bu/acre
Repetition 2 Total weight ([2]; Average over 0.01-0.09 ounces): 15.18 pounds
Repetition 2 Yield ([2]; Average over 0.01-0.09 ounces): 47.12 Bu/acre
Total yield (total average yield) ([2]; Average over 0.01-0.09 ounces): 47.06 Bu/acre
